These results are taken from patent US20100063155A1, “N-(3-PHENYLPROPYL)BENZAMIDE DERIVATIVES” (priority 2007, published 2010).

Structures are written as SMILES.

In this experiment the test system is Alternaria brassicae. Kind of experiment: In vivo test on Alternaria brassicae (leaf spot of crucifers). To be noted: 500 ppm, preventive spray on radish plants (Pernot variety), contaminated after 24 hours, grading 6 to 7 days after contamination vs control plants. As to the method: The active ingredients tested are prepared by potter homogenisation in a mixture of acetone/tween/water. This suspension is then diluted with water to obtain the desired active material concentration.
Radish plants (Pernot variety), sown on a 50/50 peat soil-pozzolana substrate in starter cups and grown at 18-20° C., are treated at the cotyledon stage by spraying with the active ingredient prepared as described above.
Plants, used as controls, are treated with the mixture of acetone/tween/water not containing the active material.
After 24 hours, the plants are contaminated by spraying them with an aqueous suspension of Alternaria brassicae spores (40,000 spores per cm^3). The spores are collected from a 12 to 13 days-old culture.
The contaminated radish plants are incubated for 6-7 days at about 18° C., under a humid atmosphere.
Grading is carried out 6 to 7 days after the contamination, in comparison with the control plants.

For the compound `O=C(NCCCc1ccc(Cl)cc1Cl)c1ccccc1C(F)(F)F` [Compound 1, N-[3-(2,4-dichlorophenyl)propyl]-2-(trifluoromethyl)benzamide], the protection entry is “at least 70%”.
